Measured values published in paper PMC4072668, “Mass Spectrometric Detection and Characterization of Atypical Membrane-Bound Zinc-Sensitive Phosphatases Modulating GABAA Receptors” (PLoS ONE, 2014).
Read-outs that look alike come from different tables or passages of the source. Blank lines part the entries; values can stand above or below the molecule they belong to. Non-standard residues stand in square brackets, D forms with d. No end group written: not given here. pT = C[C@@H](OP(=O)(O)O)[C@H](N)C(=O)O; pS = N[C@@H](COP(=O)(O)O)C(=O)O

Assays:
[1] = system: membrane-bound phosphatase activities of washed cortical membrane; assay: LC-MS/MS phosphatase assay with effectors, N-terminal phosphopeptide pI2α1N-P as substrate; type: biochemical; conditions: substrate pI2α1N-P; for IC50: 1 mM Mg2+, 30°C, 10 min, read-out: IC50
Experimental: (§1) Phosphatasic activity of bovine, rat and human washed cortical membranes was measured by using synthetic phosphopeptides as substrates. Reactions were performed in presence of 50 µg/ml (total proteins) of washed cortical membrane, 10 mM Hepes-Tris pH 7.4 and 1 mM MgCl2. Enzymatic reactions were initiated by adding 10 µM of phosphopeptide incubated for 10 min at 30°C and stopped by adding ice-cold acetic acid at a final concentration of 10% (w/v). Following a 800 g centrifugation during 10 min at 4°C, the supernatants were analyzed by LC-MS/MS. […] For these reasons, and to avoid micro-capillary column obstruction we have preferentially used the micro-LC column to characterize the pharmacological profile of phosphatasic activities.
(§2) Quantification of appearance of the native peptide and disappearance of the phosphopeptide in different conditions was performed using the calibration curve plotted using the Xcalibur software (P/N 64018-XCALI version 1.3). The calibration curve and linear regression were constructed using a series of standards, native and phosphorylated equimolar mixture, N- or C-terminal peptides at different concentrations 0.5, 1, 2, 5 and 10 µM (n = 2) in 10 mM Hepes pH 7.4, 1 mM Mg^2+ and 10% acetic acid, which was the same milieu condition as in the phosphatase assay after stopping reactions. The linear regression represents peak area of MS/MS chromatogram spectra depending on the peptide concentration (Figure S1).
(§3) Different effectors were tested by addition to the incubation medium at variable concentration: the dicationic ions Mg^2+, Ca^2+, Zn^2+ were used as chloride, the polycation spermine as hydrochloride, the anion F^− as sodium fluoride (NaF), and the inhibitors of some known phosphatases okadaic acid and the two (+/−) enantiomers of p–bromotetramisole oxalate (p-Br-t). For the inhibitory effects, relative 50% inhibition concentration (IC50) values were either determined graphically with a log-scale for the concentration axis or by the ‘log (inhibitor) vs. response’ nonlinear fit of Prism 5 software (GraphPad), considering activity in the absence of inhibitor as 100%.
Figure 4 Effects of various inhibitors on the membrane-bound phosphatase activities. […] Incubations were performed at 30°C during 10 min. The activities are expressed as a percentage of that of control samples without inhibitors. Inhibition profiles of PPase activities by okadaic acid were performed using N-terminal phosphopeptide (A) or C-terminal phosphopeptide (B) as substrate. The data points are means ± SEM of 3 experiments. The red arrows indicate the different IC50. […] Data points are the average ± SEM of duplicate assays. (D) Effect of Ca^2+ ions, fluoride (F^−) and spermine (SPM^4+) on PPase activity using N-terminal phosphopeptide as substrate.

alkaline phosphatase = system: alkaline phosphatase; parameters: method as in PMID 10898722; conditions: cited from earlier work
[2] = system: membrane-bound phosphatase activities of rat washed cortical membrane; assay: LC-MS/MS phosphatase assay, Zn2+ profile, N-terminal phosphopeptide pI2α1N-P as substrate; type: biochemical; conditions: for IC50: substrate pI2α1N-P 10 µM, 1 mM Mg2+, 30°C, 10 min, two-step fit
Experimental: as §1, §2, §3
Assays were performed in presence of rat washed cortical membrane at 50 µg/ml of total protein concentration, with increasing amounts of Zn^2+ ions in 10 mM Hepes buffer pH 7.4 with 1 mM Mg^2+ in presence of. Incubations were performed at 30°C during 10 min. The activities are expressed as a percentage of that of control samples. […] (H) PPase activity at very low Zn^2+ concentrations (1 pM–200 nM). The IC50 values are mentioned with their 95% confidence intervals and calculated from nonlinear regression curve fits using GraphPad Prism 5.

[3] = system: membrane-bound phosphatase activities of rat washed cortical membrane; assay: LC-MS/MS phosphatase assay, Zn2+ profile, C-terminal phosphopeptide pI2α1C-P as substrate; type: biochemical; conditions: for IC50: substrate pI2α1C-P 10 µM, 1 mM Mg2+, 30°C, 10 min, two-step fit
Experimental: as §1, §2
Different effectors were tested by addition to the incubation medium at variable concentration: the dicationic ions Mg^2+, Ca^2+, Zn^2+ were used as chloride, the polycation spermine as hydrochloride, the anion F^− as sodium fluoride (NaF), and the inhibitors of some known phosphatases okadaic acid and the two (+/−) enantiomers of p–bromotetramisole oxalate (p-Br-t). […]
Assays were performed in presence of rat washed cortical membrane at 50 µg/ml of total protein concentration, with increasing amounts of Zn^2+ ions in 10 mM Hepes buffer pH 7.4 with 1 mM Mg^2+ in presence of. […] The activities are expressed as a percentage of that of control samples. […]

[4] = system: membrane-bound phosphatase dephosphorylating GABAAR; parameters: method as in PMID 10762086; conditions: cited from earlier work
[5] = system: GABAA receptor currents in pyramidal neurons; parameters: method as in PMID 15342727; conditions: cited from earlier work
[6] = system: membrane-bound phosphatase activities of washed cortical membranes; assay: Enzyme kinetics of membrane-bound phosphatase activities with phosphopeptide substrates; type: biochemical; conditions: for Km / Vmax: phosphopeptide as substrate, 50 µg/ml membrane proteins, 30°C, 10 min, Michaelis-Menten fit
Experimental: Phosphatasic activity of bovine, rat and human washed cortical membranes was measured by using synthetic phosphopeptides as substrates. Reactions were performed in presence of 50 µg/ml (total proteins) of washed cortical membrane, 10 mM Hepes-Tris pH 7.4 and 1 mM MgCl2. Enzymatic reactions were initiated by adding 10 µM of phosphopeptide incubated for 10 min at 30°C and stopped by adding ice-cold acetic acid at a final concentration of 10% (w/v). Following a 800 g centrifugation during 10 min at 4°C, the supernatants were analyzed by LC-MS/MS. This centrifugation step was critical to remove membrane suspension that interferes with nano-LC and MS analysis. For these reasons, and to avoid micro-capillary column obstruction we have preferentially used the micro-LC column to characterize the pharmacological profile of phosphatasic activities.
The best conditions of incubation time and total protein concentration of washed cortical membranes were determined for assaying phosphatase activity with 10 µM of pI2α1 phosphopeptide. Protein concentration varied from 1 to 300 µg/ml and incubation time from 0.25 to 30 min, at fixed temperature of 30°C as in previous studies. Initial velocity of the enzymatic reaction was determined by linear regression (slope value). The optimal conditions were obtained with 50 µg/ml total membrane protein concentration and 10 min incubation time. The effects of the substrate effects were measured by varying the pI2α1N-P and pI2α1C-P concentrations between 3 and 75 µM. Saturation plots were generated via non-linear fit to the Michaelis-Menten equation. The affinity constant (Km) and maximum velocity (Vmax) were evaluated from this curve fitting using the Prism 5 computer program (GraphPad). Double-reciprocal plots with the Lineweaver-Burk equation were also drawn by linear fits using the same software.
Figure 2 LC-MS/MS detection and kinetics analysis of GABAAR α1-subunit phosphatase activities. (A) Dose-dependency at various protein concentrations; (B) time course of phosphatase activities using 50 µg/ml of total proteins of washed cortical membranes from bovine brain and (C) from human epileptic tissue. The N-terminal phosphopeptide (pI2α1N-P) used as substrate at 10 µM was incubated during 10 min at 30°C in 10 mM Hepes (pH 7.4) in the presence of 1 mM Mg^2+. The enzymatic reactions were stopped with 10% acetic acid and the samples were analyzed by LC-MS/MS as in figure 1E, F. The dephosphorylation rate was quantified by measuring simultaneously the quantity of the produced native peptide (pI2α1N) and of the remaining phosphorylated substrate (pI2α1N-P). Error bars represent SEM of two experiments. Kinetic analysis of GABAAR α1-subunit phosphatase activities was investigated using N-terminal (pI2α1N-P) and C-terminal (pI2α1C-P) phosphopeptides. All experiments were carried out with 50 µg/ml membrane proteins concentration, incubated at 30°C during 10 min, in presence of different concentrations of substrates. (D) Saturation plot of the initial velocity Vi versus [pI2α1N-P] and Lineweaver-Burk plots of 1/V versus 1/[pI2α1N-P] […] (E) Saturation plot of Vi versus [pI2α1C-P] and Lineweaver-Burk plot of 1/V versus 1/[pI2α1C-P] (inset). The data points are means ± SEM of 3 experiments.

[7] = read-out: IC50 (H), high affinity
[8] = read-out: IC50 (L), low affinity

Molecule: Brc1ccc(C2CN3CCSC3=N2)cc1.O=C(O)C(=O)O (single isomer, unassigned; (+)) [(+)-p--Br--t, (+)-p-bromotetramisole oxalate]
- inhibition of membrane phosphatase activities ([1]; 1 mM): completely inhibited
- IC50 [1]: 100 µM
- inhibition of alkaline phosphatase (alkaline phosphatase): completely insensitive

Molecule: Brc1ccc(C2CN3CCSC3=N2)cc1.O=C(O)C(=O)O (single isomer, unassigned; (-)) [(−)-p--Br--t, (−)-p-bromotetramisole oxalate]
- inhibition of membrane phosphatase activities ([1]; 1 mM): completely inhibited
- IC50 [1]: 300 µM
- inhibition of alkaline phosphatase (alkaline phosphatase): potent alkaline phosphatase inhibitor

Molecule: [F-].[Na+] [fluoride (F^−), sodium fluoride]
- inhibition of phosphatase activities ([1]; 1 mM): 45%
- inhibition of phosphatase activities ([1]; 10 mM): ~90%
- IC50 ([1]; listed as Sodium fluoride): < 2000 µM
- IC50 [1]: ~2000 µM

Molecule: [Na+].[Na+].[Na+].[O]=[V]([O-])([O-])[O-] [sodium orthovanadate]
- effect on rundown of GABAA currents [5]: reduced rundown
- inhibition of membrane phosphatases [4]: inhibits

Molecule: EPKKTFNSV[pS]KIDR [pI2α1C-P]
- reduction in catalytic efficiency (Vmax/Km) compared to the phosphothreonine peptide PI2α1N-P [6]: eightfold reduction
- Km [6]: 116 ± 20 µM
- Vmax [6]: 1290±150 pM.min^−1.ml^−1

Continued, in another order:

- inhibition of phosphatase activities ([1]; 1 mM): 30%
- inhibition of phosphatase activities ([1]; 10 mM): less than 60%
- IC50 [1]: ~5000 µM
Molecule: [Ca+2].[Cl-].[Cl-] [Ca^2+, CaCl2]

- effect of increasing concentration on phosphatase activities ([1]; 1 µM to 1 mM, data not shown): moderate but not linear increase
Molecule: [Cl-].[Cl-].[Mg+2] [Mg^2+, MgCl2]

- inhibition of phosphatase activities ([1]; 1 mM): 10%
- inhibition of phosphatase activities ([1]; 10 mM): 20%
- IC50 [1]: > 10000 µM
Molecule: NCCCNCCCCNCCCN [Spermine, spermine]

- effect on phosphatasic activities at low concentrations ([2]; 1 pM–200 nM Zn2+, substrate pI2α1N-P): several activations
- inhibition of phosphatase activities ([2]; 1 mM Zn2+, substrate pI2α1N-P): completely inhibited
- IC50 [2, 7]: 1.7 µM
- IC50 [2, 8]: 48 µM
- inhibition of phosphatase activities ([3]; 1 mM Zn2+, substrate pI2α1C-P): completely inhibited
- IC50 [3, 7]: 0.6 µM
- IC50 [3, 8]: 15 µM
Molecule: [Cl-].[Cl-].[Zn+2] [Zn^2+, Zinc chloride]
- inhibition of membrane-bound phosphatase activity ([4]; concentrations between 0.1 µM-1 mM): inhibited
- inhibition of GABAAR dephosphorylation ([4]; washed brain membranes, autoradiographic method): complete inhibition

- Km [6]: 25.4 ± 3.3 µM
- Vmax [6]: 2320±130 pM.min^−1.ml^−1
Molecule: NYF[pT]KRGYAWDGK [pI2α1N-P]
